Assay results published in US20130310379A1, “MODULATORS OF METHYL MODIFYING ENZYMES, COMPOSITIONS AND USES THEREOF” (CONSTELLATION PHARMACEUTICALS, priority 2010, published 2013).

Tests used:
[1] = biological target: EZH2 (Homo sapiens, UniProt Q15910); assay: EZH2 assay: rPRC2 with biotinylated oligonucleosome substrates and 3H SAM, FlashPlate scintillation counting, IC50; type: biochemical; settings: rPRC2, biotinylated oligonucleosome substrates, 3H SAM; read-out: EZH2 IC50
Procedure, shortened: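 rPRC2 (2 nM EZH2) pre-incubated 20 min with compound (80 to 0.16 uM, ten 2-fold steps), then 60 min reaction with 0.2 uM 3H SAM, 0.2 uM biotinylated oligonucleosomes, 3.6 uM H3K27me3 peptide in Tris pH 8.5. SAH/EDTA quench; 4-parameter IC50 fit.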

[2] = biological target: Y641N EZH2 (Homo sapiens, UniProt Q15910, Y641N); assay: Y641N EZH2 assay: performed as the EZH2 assay, using reconstituted H3K27Me2 oligonucleosomes as substrate; type: biochemical
Experimental: Assays were carried out by mixing rPRC2 together with biotinylated oligonucleosome substrates in the presence of the radio-labeled enzyme co-factor, S-adenosyl-L-methionine (^3H SAM) (Perkin Elmer) and monitoring the enzymatically mediated transfer of tritiated methyl groups from ^3H SAM to histone lysine residues. The amount of resulting tritated methylhistone product was measured by first capturing the biotinylated oligonuclesomes in streptavidin (SAV) coated FlashPlates (Perkin Elmer), followed by a wash step to remove un-reacted ^3H SAM, and then counting on a TopCount NXT 384 well plate scintillation counter (Perkin Elmer). The final assay conditions for EZH2 were as follows: 50 mM Tris Buffer pH 8.5, 1 mM DTT, 69 uM Brij-35 detergent, 5.0 mM MgCl2, 0.1 mg/mL BSA, 0.2 uM ^3H SAM, 0.2 uM biotinylated oligonucleosomes, 3.6 uM H3K27me3 peptide and 2 nM EZH2.
Compound IC50 measurements were obtained as follows: Compounds were first dissolved in 100% DMSO as 10 mM stock solutions. […] A 12.5 uL volume of the HMT enzyme, H3K27me3 peptide and oligonucleosome substrate in assay buffer was added to each well of the assay plate using a Multidrop Combi (ThermoFisher). Compounds were pre-incubated with the enzyme for 20 min, followed by initiation of the methyltransferase reaction by addition of 12.5 uL of 3H SAM in assay buffer (final volume=25 uL). The final concentrations of compounds ranged from a top default concentration of 80 uM down to 0.16 uM in ten 2-fold dilution steps. Reactions were carried out for 60 minutes and quenched with 20 uL per well of 1.96 mM SAH, 50 mM Tris PH 8.5, 200 mM EDTA. Stopped reactions were transferred to SAV coated Flashplates (Perkin Elmer), incubated for 120 min, washed with a plate washer, and then read on the TopCount NXT (1.0 min/well) to measure the amount of methylhistone product formed during the reaction. The amount of methylhistone product was compared with the amount of product formed in the 0% and 100% inhibition control wells allowing the calculation of % Inhibition in the presence of the individual compounds at various concentrations. IC50's were computed using a 4 parameter fit non-linear curve fitting software package (XLFIT, part of the database package, ActivityBase (IDBS)) where the four parameters were IC50, Hill slope, pre-transitional baseline (0% INH), and post-transitional baseline (100% INH); with the latter two parameters being fixed to zero and 100%, respectively, by default.

Y641N EZH2, sequence (Q15910 whole entry Y641N): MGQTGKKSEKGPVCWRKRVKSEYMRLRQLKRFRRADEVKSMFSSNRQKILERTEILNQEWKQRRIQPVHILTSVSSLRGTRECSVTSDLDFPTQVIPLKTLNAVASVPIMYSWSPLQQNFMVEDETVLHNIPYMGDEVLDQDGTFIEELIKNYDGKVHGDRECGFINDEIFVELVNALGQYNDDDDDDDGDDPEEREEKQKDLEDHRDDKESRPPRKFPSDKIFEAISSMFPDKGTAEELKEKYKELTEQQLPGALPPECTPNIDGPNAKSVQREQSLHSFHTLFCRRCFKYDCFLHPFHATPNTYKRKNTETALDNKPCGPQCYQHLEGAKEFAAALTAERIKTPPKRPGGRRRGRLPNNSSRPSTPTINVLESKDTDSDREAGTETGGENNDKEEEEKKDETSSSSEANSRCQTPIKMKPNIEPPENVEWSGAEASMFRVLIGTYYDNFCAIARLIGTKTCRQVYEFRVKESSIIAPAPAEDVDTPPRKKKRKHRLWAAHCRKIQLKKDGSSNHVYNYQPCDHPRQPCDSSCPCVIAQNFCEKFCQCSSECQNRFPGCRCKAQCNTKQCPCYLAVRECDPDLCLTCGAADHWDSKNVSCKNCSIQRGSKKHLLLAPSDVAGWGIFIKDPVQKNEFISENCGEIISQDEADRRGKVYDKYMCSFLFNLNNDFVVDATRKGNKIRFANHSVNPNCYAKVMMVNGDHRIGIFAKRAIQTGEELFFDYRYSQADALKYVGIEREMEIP
Y641N EZH2, sequence (O75530 whole entry partner): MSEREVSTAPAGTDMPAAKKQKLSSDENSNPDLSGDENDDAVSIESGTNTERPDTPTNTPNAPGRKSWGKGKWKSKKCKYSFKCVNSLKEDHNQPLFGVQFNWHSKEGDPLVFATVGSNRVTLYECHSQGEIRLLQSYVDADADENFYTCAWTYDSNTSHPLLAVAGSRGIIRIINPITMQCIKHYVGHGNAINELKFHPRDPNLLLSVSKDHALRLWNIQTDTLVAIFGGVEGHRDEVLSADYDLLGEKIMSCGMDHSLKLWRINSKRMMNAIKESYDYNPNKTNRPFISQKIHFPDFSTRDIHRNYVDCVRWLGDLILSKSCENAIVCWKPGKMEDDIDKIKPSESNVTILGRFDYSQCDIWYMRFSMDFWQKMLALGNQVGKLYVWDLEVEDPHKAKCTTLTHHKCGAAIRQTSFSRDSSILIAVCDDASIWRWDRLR
Y641N EZH2, sequence (Q15022 whole entry partner): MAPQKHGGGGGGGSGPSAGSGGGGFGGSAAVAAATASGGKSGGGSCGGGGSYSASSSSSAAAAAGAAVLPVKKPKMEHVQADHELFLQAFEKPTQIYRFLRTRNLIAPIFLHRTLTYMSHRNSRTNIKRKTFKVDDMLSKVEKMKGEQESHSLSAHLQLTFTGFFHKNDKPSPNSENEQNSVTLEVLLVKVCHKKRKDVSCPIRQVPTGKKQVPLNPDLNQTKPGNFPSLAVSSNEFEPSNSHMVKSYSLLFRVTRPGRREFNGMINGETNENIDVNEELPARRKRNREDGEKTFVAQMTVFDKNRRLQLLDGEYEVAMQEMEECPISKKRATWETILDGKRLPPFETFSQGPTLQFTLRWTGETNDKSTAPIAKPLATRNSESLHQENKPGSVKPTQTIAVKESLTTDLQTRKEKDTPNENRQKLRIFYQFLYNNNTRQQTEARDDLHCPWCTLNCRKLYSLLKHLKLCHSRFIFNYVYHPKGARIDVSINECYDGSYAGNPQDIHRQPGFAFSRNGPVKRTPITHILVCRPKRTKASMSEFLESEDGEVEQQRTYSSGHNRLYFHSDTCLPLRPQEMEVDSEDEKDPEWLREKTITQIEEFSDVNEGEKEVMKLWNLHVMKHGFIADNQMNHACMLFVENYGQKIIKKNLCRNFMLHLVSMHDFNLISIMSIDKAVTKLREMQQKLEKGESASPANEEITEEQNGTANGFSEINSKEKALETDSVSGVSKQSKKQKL
EZH2, sequence (Q15910 whole entry): as the sequence (Q15910 whole entry Y641N) above, with N641Y counted along it
EZH2, sequence (O75530 whole entry partner): as the sequence (O75530 whole entry partner) above
EZH2, sequence (Q15022 whole entry partner): as the sequence (Q15022 whole entry partner) above

SMILES	IC50 [1] [µM]	IC50 [2] [µM]
CN(C)c1ccc(-c2cccc(OCc3ccc(C(=O)NC4CC(C)(C)NC(C)(C)C4)cc3)c2)cn1 [Compound I-154]	20 to 80	20 to 80
CC1(C)CC(N2CCc3cc(Oc4ccccc4C#N)c(Cl)cc3C2=O)CC(C)(C)N1 [Compound I-163]	20 to 80	> 80
CC(=O)Nc1ccc(-c2cccc(OCc3ccc(C(=O)NC4CC(C)(C)NC(C)(C)C4)cc3)c2)cc1 [Compound I-167]	20 to 80	20 to 80
CC1(C)CC(NC(=O)c2ccc(Oc3cccc4cnccc34)cc2)CC(C)(C)N1 [Compound I-171]	< 5	20 to 80
CC1(C)CC(NC(=O)c2ccc(C#Cc3ccccc3)cc2)CC(C)(C)N1 [Compound I-173]	5 to 20	5 to 20
CC1(C)CC(NC(=O)c2ccc(COc3cccc(-c4ccc5[nH]ccc5c4)c3)cc2)CC(C)(C)N1 [Compound I-183]	20 to 80	20 to 80
CC1(C)CC(NC(=O)c2ccc(COc3ccccc3Br)cc2)CC(C)(C)N1 [Compound I-185]	20 to 80	> 80
CC1(C)CC(NC(=O)c2ccc(Oc3ccccc3C#N)c(Br)c2)CC(C)(C)N1 [Compound I-186]	< 5	5 to 20
CC1(C)CC(NC(=O)c2ccc(Oc3ccccc3C#N)c(CCc3ccccc3)c2)CC(C)(C)N1 [Compound I-199]	< 5	5 to 20
CC1(C)CC(NC(=O)c2ccc(Oc3ccccc3-c3cccnc3)c(Cl)c2)CC(C)(C)N1 [Compound I-207]	< 5	20 to 80
CC1(C)CC(NC(=O)c2ccc(COc3cccc(Br)c3)c(Br)c2)CC(C)(C)N1 [Compound I-216]	5 to 20	20 to 80
CC1(C)CC(NC(=O)c2ccc(Oc3ccccc3C#N)c(F)c2)CC(C)(C)N1 [Compound I-217]	< 5	20 to 80
Cc1cc(C(=O)NC2CC(C)(C)NC(C)(C)C2)ccc1Oc1ccccc1C#N [Compound I-223]	< 5	5 to 20
CC1(C)CC(NC(=O)c2ccc(Oc3cccc(-c4ccc(N)nc4)c3)cc2)CC(C)(C)N1 [Compound I-228]	5 to 20	> 80
CC1(C)CC(NC(=O)c2ccc(Oc3cccc(Br)c3C#N)c(Cl)c2)CC(C)(C)N1 [Compound I-254]	< 5	< 5
CC1(C)CC(NC(=O)c2ccc(Oc3cccc(Cl)c3C#N)c(Cl)c2)CC(C)(C)N1 [Compound I-256]	< 5	< 5
CC1(C)CC(NC(=O)c2ccc(Oc3cccc(I)c3C#N)c(Cl)c2)CC(C)(C)N1 [Compound I-257]	< 5	< 5
CC1(C)CC(NC(=O)c2ccc(Oc3cccc(F)c3C#N)c(Cl)c2)CC(C)(C)N1 [Compound I-258]	< 5	< 5
Cc1cc(C(=O)NC2CC(C)(C)NC(C)(C)C2)ccc1Oc1cccc(Br)c1C#N [Compound I-259]	< 5	< 5
Cc1cc(C(=O)NC2CC(C)(C)NC(C)(C)C2)ccc1Oc1cccc(-c2ccccc2)c1C#N [Compound I-260]	< 5	20 to 80
Cc1cc(C(=O)NC2CC(C)(C)NC(C)(C)C2)ccc1Oc1cccc(-c2cn[nH]c2)c1C#N [Compound I-262]	< 5	< 5
CCc1cccc(Oc2ccc(C(=O)NC3CC(C)(C)NC(C)(C)C3)cc2C)c1C#N [Compound I-266]	< 5	< 5
CC1(C)CC(NC(=O)c2ccc(Oc3cccc(NCC(N)=O)c3)c(Cl)c2)CC(C)(C)N1 [Compound I-304]	5 to 20	> 80
CC1(C)CC(NC(=O)c2ccc(Oc3cccc(-c4cn[nH]c4)c3C#N)c(Cl)c2)CC(C)(C)N1 [Compound I-307]	< 5	< 5
CC1(C)CC(NC(=O)c2ccc(Oc3cccc(-c4cccnc4)c3C#N)c(Cl)c2)CC(C)(C)N1 [Compound I-308]	< 5	< 5

SMILES	IC50 [1] [µM]	IC50 [2] [µM]
CC1(C)CC(NC(=O)c2ccc(Oc3cccc(-c4ccc(N)nc4)c3C#N)c(Cl)c2)CC(C)(C)N1 [Compound I-312]	< 5	< 5
CC1(C)CC(NC(=O)c2ccc(Oc3ccccc3-c3cnc4ccccc4c3)c(Cl)c2)CC(C)(C)N1 [Compound I-320]	< 5	5 to 20
CC1(C)CC(NC(=O)c2ccc(Oc3cccc4cnccc34)c(Cl)c2)CC(C)(C)N1 [Compound I-324]	< 5	5 to 20
CC(Oc1cccc(Oc2ccc(C(=O)NC3CC(C)(C)NC(C)(C)C3)cc2Cl)c1C#N)C(N)=O (stereo not shown) [Compound I-326]	5 to 20	> 80
CC1(C)CC(NC(=O)c2ccc(-n3ncc4ccccc43)c(Cl)c2)CC(C)(C)N1 [Compound I-327]	< 5	5 to 20
CC1(C)CC(NC(=O)c2ccc(/C=C/c3ccccc3)cc2)CC(C)(C)N1 [Compound I-330]	20 to 80	> 80
COc1cccc(Oc2ccc(C(=O)NC3CC(C)(C)NC(C)(C)C3)cc2Cl)c1C#N [Compound I-333]	< 5	5 to 20
CN(C)c1cccc(Oc2ccc(C(=O)NC3CC(C)(C)NC(C)(C)C3)cc2Cl)c1C#N [Compound I-334]	< 5	5 to 20
CC1(C)CC(NC(=O)c2ccc(Oc3cccc(-c4ccncc4)c3C#N)c(Cl)c2)CC(C)(C)N1 [Compound I-339]	< 5	< 5
CC1(C)CC(NC(=O)c2ccc(Oc3cccc(-c4cncnc4)c3C#N)c(Cl)c2)CC(C)(C)N1 [Compound I-340]	< 5	5 to 20
CCc1cccc(Oc2ccc(C(=O)NC3CC(C)(C)NC(C)(C)C3)cc2Cl)c1-c1ccncc1 [Compound I-342]	20 to 80	> 80
CCc1cccc(Oc2ccc(C(=O)NC3CC(C)(C)NC(C)(C)C3)cc2Cl)c1-c1cccnc1 [Compound I-343]	20 to 80	20 to 80
CN(C(=O)c1ccc(Oc2ccccc2C#N)c(Cl)c1)C1CC(C)(C)NC(C)(C)C1 [Compound I-344]	5 to 20	> 80
CC1(C)CC(NC(=O)c2ccc(Oc3cccc(-c4cn[nH]c4)c3C#N)c(Br)c2)CC(C)(C)N1 [Compound I-347]	< 5	< 5
CC1(C)CC(N2Cc3cc(Oc4ccccc4C#N)c(Cl)cc3C2=O)CC(C)(C)N1 [Compound I-356]	> 80	> 80
Cc1ccc(-c2cccc(Oc3ccc(C(=O)NC4CC(C)(C)NC(C)(C)C4)cc3Cl)c2C#N)cn1 [Compound I-362]	< 5	5 to 20
CC1(C)CC(NC(=O)c2ccc(Oc3cccc(-c4cccnc4)c3C#N)c(Br)c2)CC(C)(C)N1 [Compound I-364]	< 5	< 5
CC1(C)CC(NC(=O)c2ccc(Oc3cccc(-c4ccccn4)c3C#N)c(Cl)c2)CC(C)(C)N1 [Compound I-367]	< 5	< 5
CCc1cccc(Oc2ccc(C(=O)NC3CC(C)(C)NC(C)(C)C3)cc2Br)c1C#N [Compound I-369]	< 5	< 5
CC1(C)CC(NC(=O)c2ccc(Oc3cccc(-c4ccnc(N)c4)c3C#N)c(Cl)c2)CC(C)(C)N1 [Compound I-375]	< 5	< 5
CC1(C)CC(NC(=O)c2ccc(Oc3cccc(N4CCCC4)c3)c(Cl)c2)CC(C)(C)N1 [Compound I-379]	20 to 80	20 to 80
CNCc1cccc(Oc2ccc(C(=O)NC3CC(C)(C)NC(C)(C)C3)cc2Cl)c1C#N [Compound I-381]	< 5	20 to 80
CC1(C)CC(NC(=O)c2ccc(Oc3cccc(N4CCCC4=O)c3)c(Cl)c2)CC(C)(C)N1 [Compound I-385]	5 to 20	> 80
CN(C)C(=O)Cn1cc(-c2cccc(Oc3ccc(C(=O)NC4CC(C)(C)NC(C)(C)C4)cc3Cl)c2C#N)cn1 [Compound I-395]	< 5	5 to 20
CC1(C)CC(NC(=O)c2ccc(Oc3cccc(N4CCOCC4=O)c3)c(Cl)c2)CC(C)(C)N1 [Compound I-397]	5 to 20	> 80
